Reference: ChEMBL document CHEMBL1201862, “PubChem BioAssay data set” (2004)
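In this assay, cells in 96-well plates receive the compound at five concentrations for 48 hours. Endpoints are linearly interpolated between the surrounding concentrations. GI50: concentration for 50% inhibition of growth.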 The source made the active and inactive calls. Cut-off read from the data, not from the text of the source: active = GI50 up to about 1.1 µM and inactive = higher.

Columns and labels:
Assay in all cases: growth of human tumour cells (NCI), 48 h
[1] = test system: 786-0
[2] = test system: EKVX
[3] = test system: K562
[4] = test system: ACHN
[5] = test system: DLD-1
[6] = test system: NCI-H460
[7] = test system: SNB-78
[8] = test system: CCRF-CEM
[9] = test system: IGROV-1
[10] = test system: LXFL 529
[11] = test system: RPMI-8226
[12] = test system: HCT-116
[13] = test system: HL-60
[14] = test system: SK-MEL-5
[15] = test system: SF-268
[16] = test system: SR
[17] = test system: SK-MEL-2
[18] = test system: OVCAR-5
[19] = test system: UACC-257
[20] = test system: HOP-92
[21] = test system: COLO 205
[22] = test system: SNB-19
[23] = test system: SF-295
[24] = test system: U-251
[25] = test system: SF-539
[26] = test system: A549
[27] = test system: OVCAR-8
[28] = test system: OVCAR-3
[29] = test system: LOX IMVI
[30] = test system: RXF 393
[31] = test system: UO-31
[32] = test system: SNB-75
[33] = test system: XF498
[34] = test system: M19-MEL
[35] = test system: M14
[36] = test system: Malme-3M
[37] = test system: UACC-62
[38] = test system: HCT-15
[39] = test system: NCI-H522
[40] = test system: HOP-62
[41] = test system: TK-10
[42] = test system: RXF 631
[43] = test system: CAKI-1
[44] = test system: HT-29
[45] = test system: KM12
[46] = test system: SK-OV-3
[47] = test system: NCI-H23
[48] = test system: A498
[49] = test system: SN12C
[50] = test system: HOP-18
[51] = test system: KM-20L2
[52] = test system: NCI-H226
[53] = test system: OVCAR-4
[54] = test system: SW-620

C/C(=N\NS(=O)(=O)c1ccc(C)cc1)C(CN1CCOCC1)C(c1ccccc1)c1c(O)c2ccccc2oc1=O (centres undefined)
GI50 [1]: > 100 µM (inactive) | GI50 [2]: > 100 µM (inactive) | GI50 [3]: 53.2 µM (inactive) | GI50 [4]: > 100 µM (inactive) | GI50 [5]: > 100 µM (inactive) | GI50 [6]: > 100 µM (inactive) | GI50 [7]: > 100 µM (inactive) | GI50 [8]: 37.5 µM (inactive) | GI50 [9]: > 100 µM (inactive) | GI50 [10]: > 100 µM (inactive) | GI50 [11]: 35.2 µM (inactive) | GI50 [12]: > 100 µM (inactive) | GI50 [13]: 30.8 µM (inactive) | GI50 [14]: > 100 µM (inactive) | GI50 [15]: > 100 µM (inactive) | GI50 [16]: 19.7 µM (inactive) | GI50 [17]: > 100 µM (inactive) | GI50 [18]: > 100 µM (inactive) | GI50 [19]: > 100 µM (inactive) | GI50 [20]: 59.8 µM (inactive) | GI50 [21]: 40.8 µM (inactive) | GI50 [22]: > 100 µM (inactive) | GI50 [23]: 83 µM (inactive) | GI50 [24]: > 100 µM (inactive) | GI50 [25]: > 100 µM (inactive) | GI50 [26]: > 100 µM (inactive) | GI50 [27]: > 100 µM (inactive) | GI50 [28]: 89.5 µM (inactive) | GI50 [29]: > 100 µM (inactive) | GI50 [30]: 68.2 µM (inactive) | GI50 [31]: 72.3 µM (inactive) | GI50 [32]: > 100 µM (inactive) | GI50 [33]: > 100 µM (inactive) | GI50 [34]: 99.5 µM (inactive) | GI50 [35]: > 100 µM (inactive) | GI50 [36]: > 100 µM (inactive) | GI50 [37]: > 100 µM (inactive) | GI50 [38]: > 100 µM | GI50 [39]: 59.8 µM (inactive) | GI50 [40]: > 100 µM (inactive) | GI50 [41]: > 100 µM (inactive) | GI50 [42]: > 100 µM (inactive) | GI50 [43]: > 100 µM (inactive) | GI50 [44]: > 100 µM (inactive) | GI50 [45]: > 100 µM (inactive) | GI50 [46]: > 100 µM (inactive) | GI50 [47]: > 100 µM (inactive) | GI50 [48]: > 100 µM (inactive) | GI50 [49]: > 100 µM (inactive) | GI50 [50]: > 100 µM (inactive) | GI50 [51]: > 100 µM (inactive) | GI50 [52]: > 100 µM (inactive) | GI50 [53]: > 100 µM (inactive) | GI50 [54]: 30.6 µM (inactive)
